Test: Inhibition of IL-17 in human PBMC

## COc1cc(OC)c2c(=O)[nH]c(-c3cc(C)c(OCCN4CCCC4)c(C)c3)nc2c1
  IC50: 1300 nM
